# Measured values reported in patent US20070099970A1, “Immunomodulatory compounds that target and inhibit the pY'binding site of tyrosene kinase p56 LCK SH2 domain” (priority 2005, published 2007).
# Biological target: T1, recombinant GST Lck SH2 domain fusion protein (Homo sapiens, UniProt P06239)
# T1 construct: recombinant GST Lck SH2 domain fusion protein; made in house
# Test: solid phase EIA inhibition assay: binding of GST Lck SH2 domain to CD3 ζ chain ITAM 2 phosphopeptide
# Conditions: assay example 1, stronger inhibitors >60% inhibition, weaker inhibitors <60% inhibition
# Method: Compounds of the invention were obtained from commercial sources and were tested using a high-throughput Enzyme Immunoassay (EIA) developed to rapidly quantify inhibition.
# Biological activities were measured using said EIA assay using 96 well medium binding EIA plates (Costar). Wells were coated with 100 μl of human CD3 ζ chain ITAM 2 phosphopeptide conjugated to BSA (˜10 pmole peptide equivalent) in PBS overnight at 4° C. and blocked with 300 μl of PBS containing 5% (wt/vol) powdered skim milk for 1 h at 37° C. After washing with PBS containing 1% Tween 20 (PBST), 3 times, 100 μl of precalibrated bacterial lysate containing recombinant GST Lck SH2 domain fusion protein was added in the presence or absence of test compounds and incubated for 1 h at room temperature. After 3 extensive washings with PBST, 100 μl of PBS containing HRP-conjugated rabbit anti-GST antibody was added and incubated for 1 h. After extensive washing with PBST, 100 μl of TMB substrate was added and absorbance at 620 nm was measured using a multiwell EIA plate reader (Anthos HTIII). The percent inhibition (% inhibition) was calculated based on the optical density (OD) using the formula: % inhibition=100−(ΔOD of test well/ΔOD of positive wells)×100, where ΔOD was calculated by subtracting background OD (average OD of negative wells) from the test as well as positive control wells. Error analysis was performed on two or more measurements.
# T1 sequence (P06239 127-224 limits assumed): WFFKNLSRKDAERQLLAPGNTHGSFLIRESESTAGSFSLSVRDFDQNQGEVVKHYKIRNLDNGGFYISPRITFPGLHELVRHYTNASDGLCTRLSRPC
row,SMILES,"inhibitory activity, in words"
1,Cc1cccc(NC(=O)CN2C(=O)S/C(=C\c3ccc(O)cc3)C2=O)c1 [276-6],lower activity
2,COC(=O)c1ccc(-c2ccc(/C=C3\SC(=O)N(CC(=O)Nc4ccc(C)cc4)C3=O)o2)c(C)c1 [276-8],weak inhibitors
3,Cc1ccc(NC(=O)CN2C(=O)S/C(=C\c3ccccc3O)C2=O)cc1 [276-11],lowest activity among the highly active compounds
4,Cc1ccc(NC(=O)CN2C(=O)S/C(=C/c3ccc(-c4ccc(Cl)c(C(=O)O)c4)o3)C2=O)cc1 [276-13],stronger inhibitors
5,Cc1ccc(NC(=O)CN2C(=O)S/C(=C\c3cccc(O)c3)C2=O)cc1 [276-14],lower activity
6,Cc1ccc(NC(=O)CN2C(=O)S/C(=C\c3ccc(O)cc3)C2=O)cc1 [276-15],lower activity
